In brackets after ≈: the same amount, converted by molar mass. Activity calls are given as the source filed them. The calls are words filed in the database; no cut-off is given here.
Tests used:
Kir3.1/Kir3.4 = molecular target: T1, Kir3.1/Kir3.4 (Homo sapiens, UniProt P48544+P48549); assay: Inhibition of recombinant human GIRK1/4 channel; type: protein-complex assay
T1 sequence (P48549 whole entry): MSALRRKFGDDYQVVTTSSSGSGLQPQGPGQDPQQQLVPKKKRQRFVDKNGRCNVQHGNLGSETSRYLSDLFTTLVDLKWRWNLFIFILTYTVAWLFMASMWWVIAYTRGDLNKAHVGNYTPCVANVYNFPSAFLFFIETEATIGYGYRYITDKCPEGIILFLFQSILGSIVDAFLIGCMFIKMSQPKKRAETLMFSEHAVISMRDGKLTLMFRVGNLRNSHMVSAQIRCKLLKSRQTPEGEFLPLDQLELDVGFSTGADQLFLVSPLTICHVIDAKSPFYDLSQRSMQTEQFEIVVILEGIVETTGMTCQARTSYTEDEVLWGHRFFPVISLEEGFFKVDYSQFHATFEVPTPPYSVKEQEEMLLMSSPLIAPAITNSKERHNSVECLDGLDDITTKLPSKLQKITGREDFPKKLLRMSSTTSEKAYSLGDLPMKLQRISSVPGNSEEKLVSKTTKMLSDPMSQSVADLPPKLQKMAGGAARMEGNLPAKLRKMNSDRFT
T1 sequence (P48544 whole entry): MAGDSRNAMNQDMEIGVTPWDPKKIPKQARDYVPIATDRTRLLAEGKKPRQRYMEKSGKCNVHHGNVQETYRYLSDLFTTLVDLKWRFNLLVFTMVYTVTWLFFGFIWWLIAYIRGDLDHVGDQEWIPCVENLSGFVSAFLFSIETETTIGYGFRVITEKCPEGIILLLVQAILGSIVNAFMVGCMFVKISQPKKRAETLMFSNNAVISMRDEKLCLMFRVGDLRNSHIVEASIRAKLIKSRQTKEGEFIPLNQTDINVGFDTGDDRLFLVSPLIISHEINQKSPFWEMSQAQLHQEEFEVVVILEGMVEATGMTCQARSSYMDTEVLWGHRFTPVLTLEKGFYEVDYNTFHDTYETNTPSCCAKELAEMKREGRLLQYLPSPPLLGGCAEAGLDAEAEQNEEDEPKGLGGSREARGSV

MDCK = assay: Substrate activity at p-glycoprotein in MDCK cells overexpressing MDR1 assessed as efflux ratio of permeability from basolateral to apical side over apical to basolateral side; type: cell-based; conditions: Canis lupus familiaris
[1] = Apparent permeability across apical to basolateral side in MDCK cells; type: ADME, cell-based, Canis lupus familiaris; conditions: dog
[2] = Aqueous solubility of the compound at pH 6.8; type: physicochemical
[3] = Brain to plasma ratio in rat; type: ADME; conditions: read-out: BPR
[4] = molecular target: Voltage-gated inwardly rectifying potassium channel KCNH2 (Homo sapiens, UniProt Q12809); assay: Inhibition of recombinant hERG in the presence of dofetilide by competitive binding assay; type: toxicity
Chain of Voltage-gated inwardly rectifying potassium channel KCNH2 (Q12809 whole entry): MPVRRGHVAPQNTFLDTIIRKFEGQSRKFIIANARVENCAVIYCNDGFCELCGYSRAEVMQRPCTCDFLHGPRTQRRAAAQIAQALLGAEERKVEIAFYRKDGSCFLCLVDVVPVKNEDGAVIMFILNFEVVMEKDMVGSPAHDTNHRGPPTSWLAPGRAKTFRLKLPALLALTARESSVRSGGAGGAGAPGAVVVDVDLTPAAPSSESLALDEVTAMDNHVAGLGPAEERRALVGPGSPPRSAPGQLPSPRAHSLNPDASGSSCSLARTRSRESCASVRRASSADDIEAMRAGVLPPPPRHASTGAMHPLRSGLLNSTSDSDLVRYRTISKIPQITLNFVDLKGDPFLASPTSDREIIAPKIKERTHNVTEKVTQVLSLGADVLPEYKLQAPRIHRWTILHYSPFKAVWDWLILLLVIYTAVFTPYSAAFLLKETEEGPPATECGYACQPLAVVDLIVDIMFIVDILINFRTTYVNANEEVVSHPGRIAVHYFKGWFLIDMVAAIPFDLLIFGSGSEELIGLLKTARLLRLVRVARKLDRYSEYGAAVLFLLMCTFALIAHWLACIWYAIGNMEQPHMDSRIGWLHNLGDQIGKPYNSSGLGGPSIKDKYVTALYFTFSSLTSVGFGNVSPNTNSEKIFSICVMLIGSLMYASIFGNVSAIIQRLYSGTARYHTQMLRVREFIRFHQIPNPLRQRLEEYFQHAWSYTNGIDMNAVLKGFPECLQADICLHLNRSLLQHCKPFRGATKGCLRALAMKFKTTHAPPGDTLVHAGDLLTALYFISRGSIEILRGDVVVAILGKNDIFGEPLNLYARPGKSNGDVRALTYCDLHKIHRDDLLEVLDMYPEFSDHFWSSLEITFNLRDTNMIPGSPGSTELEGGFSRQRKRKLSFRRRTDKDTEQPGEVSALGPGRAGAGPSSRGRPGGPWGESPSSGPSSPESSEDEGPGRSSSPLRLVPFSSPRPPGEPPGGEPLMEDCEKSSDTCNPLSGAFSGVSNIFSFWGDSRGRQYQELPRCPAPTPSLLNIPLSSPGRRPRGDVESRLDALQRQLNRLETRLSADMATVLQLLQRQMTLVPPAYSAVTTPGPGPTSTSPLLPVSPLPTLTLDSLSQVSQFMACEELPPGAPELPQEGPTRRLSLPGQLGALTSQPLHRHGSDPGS

Cavia porcellus [5] = species on record: Cavia porcellus; assay: Effect on fingolimod-induced shortening of AERP in guinea pig model assessed as restoration of shortened AERP measured at 30 to 60 mins; type: functional; conditions: time 30-60 min
[6] = Toxicity in langendorff-perfused guinea pig heart assessed as effect on left atrial action potential duration at 10 uM; type: tissue-based, Cavia porcellus
[7] = Toxicity in langendorff-perfused guinea pig heart assessed as effect on PR interval at 10 uM; type: tissue-based, Cavia porcellus
Kir3.1/Kir3.2 = molecular target: T2, Kir3.1/Kir3.2 (Homo sapiens, UniProt P48051+P48549); assay: Inhibition of GIRK1/2 (unknown origin) channel; type: protein-complex assay
T2 sequence (P48549 whole entry): T1 sequence (P48549 whole entry)
T2 sequence (P48051 whole entry): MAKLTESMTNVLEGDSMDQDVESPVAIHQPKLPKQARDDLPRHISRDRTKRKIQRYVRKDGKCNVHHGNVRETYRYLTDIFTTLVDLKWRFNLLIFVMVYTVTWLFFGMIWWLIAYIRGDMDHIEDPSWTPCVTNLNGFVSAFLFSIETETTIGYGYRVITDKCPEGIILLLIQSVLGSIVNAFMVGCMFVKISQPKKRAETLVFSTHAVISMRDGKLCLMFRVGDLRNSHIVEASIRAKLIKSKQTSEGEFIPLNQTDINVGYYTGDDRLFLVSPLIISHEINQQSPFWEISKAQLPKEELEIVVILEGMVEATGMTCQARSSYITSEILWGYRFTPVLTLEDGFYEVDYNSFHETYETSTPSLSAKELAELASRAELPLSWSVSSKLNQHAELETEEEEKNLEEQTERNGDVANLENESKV

[8] = Equilibrium solubility of the compound at pH 7.4; type: physicochemical; conditions: buffer
[9] = Toxicity in langendorff-perfused guinea pig heart assessed as effect on coronary artery perfusion pressure at 10 uM; type: tissue-based, Cavia porcellus
[10] = Toxicity in rat assessed as NOAEL administered as single dose; conditions: in vivo
[11] = Clearance in iv dosed rat; type: ADME, organism-based; conditions: in vivo
[12] = Toxicity in langendorff-perfused guinea pig heart assessed as effect on QT interval at 10 uM; type: tissue-based, Cavia porcellus
Cavia porcellus [13] = assay: Effect on AERP in guinea pig assessed as increase in AERP interval at 3 mg/kg, iv measured for 60 mins; type: functional, organism-based
[14] = molecular target: Sodium channel protein type 5 subunit alpha (Homo sapiens, UniProt Q14524); assay: Inhibition of recombinant human Nav1.5; type: toxicity
[15] = Cmax in rat administered as single dose; type: ADME; conditions: in vivo
[16] = molecular target: T3, Potassium voltage-gated channel subfamily KQT member 1 (Homo sapiens, UniProt P51787); assay: Inhibition of recombinant human KCNQ1; type: toxicity
T3 sequence (P51787 whole entry): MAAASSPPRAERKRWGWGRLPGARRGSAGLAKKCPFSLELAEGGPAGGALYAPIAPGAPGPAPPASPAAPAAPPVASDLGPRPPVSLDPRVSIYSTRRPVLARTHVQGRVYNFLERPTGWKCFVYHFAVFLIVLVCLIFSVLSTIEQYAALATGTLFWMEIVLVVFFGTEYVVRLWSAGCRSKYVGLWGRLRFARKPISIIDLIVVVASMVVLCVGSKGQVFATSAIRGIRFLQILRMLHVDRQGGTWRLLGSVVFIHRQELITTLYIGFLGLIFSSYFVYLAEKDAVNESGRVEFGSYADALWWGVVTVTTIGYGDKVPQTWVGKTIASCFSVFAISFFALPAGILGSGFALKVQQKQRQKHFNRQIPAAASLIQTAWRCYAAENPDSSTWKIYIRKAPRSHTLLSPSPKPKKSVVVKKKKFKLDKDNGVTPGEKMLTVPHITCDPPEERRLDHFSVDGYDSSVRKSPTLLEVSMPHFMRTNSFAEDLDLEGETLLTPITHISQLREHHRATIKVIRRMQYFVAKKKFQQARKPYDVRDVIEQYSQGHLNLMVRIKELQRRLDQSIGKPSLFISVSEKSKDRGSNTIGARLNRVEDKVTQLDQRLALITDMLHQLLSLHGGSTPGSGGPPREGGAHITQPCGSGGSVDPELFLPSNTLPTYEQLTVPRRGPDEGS

[17] = molecular target: Voltage-dependent L-type calcium channel subunit alpha-1C (Homo sapiens, UniProt Q13936); assay: Inhibition of recombinant human Cav1.2; type: toxicity
Chain of Voltage-dependent L-type calcium channel subunit alpha-1C (Q13936 whole entry): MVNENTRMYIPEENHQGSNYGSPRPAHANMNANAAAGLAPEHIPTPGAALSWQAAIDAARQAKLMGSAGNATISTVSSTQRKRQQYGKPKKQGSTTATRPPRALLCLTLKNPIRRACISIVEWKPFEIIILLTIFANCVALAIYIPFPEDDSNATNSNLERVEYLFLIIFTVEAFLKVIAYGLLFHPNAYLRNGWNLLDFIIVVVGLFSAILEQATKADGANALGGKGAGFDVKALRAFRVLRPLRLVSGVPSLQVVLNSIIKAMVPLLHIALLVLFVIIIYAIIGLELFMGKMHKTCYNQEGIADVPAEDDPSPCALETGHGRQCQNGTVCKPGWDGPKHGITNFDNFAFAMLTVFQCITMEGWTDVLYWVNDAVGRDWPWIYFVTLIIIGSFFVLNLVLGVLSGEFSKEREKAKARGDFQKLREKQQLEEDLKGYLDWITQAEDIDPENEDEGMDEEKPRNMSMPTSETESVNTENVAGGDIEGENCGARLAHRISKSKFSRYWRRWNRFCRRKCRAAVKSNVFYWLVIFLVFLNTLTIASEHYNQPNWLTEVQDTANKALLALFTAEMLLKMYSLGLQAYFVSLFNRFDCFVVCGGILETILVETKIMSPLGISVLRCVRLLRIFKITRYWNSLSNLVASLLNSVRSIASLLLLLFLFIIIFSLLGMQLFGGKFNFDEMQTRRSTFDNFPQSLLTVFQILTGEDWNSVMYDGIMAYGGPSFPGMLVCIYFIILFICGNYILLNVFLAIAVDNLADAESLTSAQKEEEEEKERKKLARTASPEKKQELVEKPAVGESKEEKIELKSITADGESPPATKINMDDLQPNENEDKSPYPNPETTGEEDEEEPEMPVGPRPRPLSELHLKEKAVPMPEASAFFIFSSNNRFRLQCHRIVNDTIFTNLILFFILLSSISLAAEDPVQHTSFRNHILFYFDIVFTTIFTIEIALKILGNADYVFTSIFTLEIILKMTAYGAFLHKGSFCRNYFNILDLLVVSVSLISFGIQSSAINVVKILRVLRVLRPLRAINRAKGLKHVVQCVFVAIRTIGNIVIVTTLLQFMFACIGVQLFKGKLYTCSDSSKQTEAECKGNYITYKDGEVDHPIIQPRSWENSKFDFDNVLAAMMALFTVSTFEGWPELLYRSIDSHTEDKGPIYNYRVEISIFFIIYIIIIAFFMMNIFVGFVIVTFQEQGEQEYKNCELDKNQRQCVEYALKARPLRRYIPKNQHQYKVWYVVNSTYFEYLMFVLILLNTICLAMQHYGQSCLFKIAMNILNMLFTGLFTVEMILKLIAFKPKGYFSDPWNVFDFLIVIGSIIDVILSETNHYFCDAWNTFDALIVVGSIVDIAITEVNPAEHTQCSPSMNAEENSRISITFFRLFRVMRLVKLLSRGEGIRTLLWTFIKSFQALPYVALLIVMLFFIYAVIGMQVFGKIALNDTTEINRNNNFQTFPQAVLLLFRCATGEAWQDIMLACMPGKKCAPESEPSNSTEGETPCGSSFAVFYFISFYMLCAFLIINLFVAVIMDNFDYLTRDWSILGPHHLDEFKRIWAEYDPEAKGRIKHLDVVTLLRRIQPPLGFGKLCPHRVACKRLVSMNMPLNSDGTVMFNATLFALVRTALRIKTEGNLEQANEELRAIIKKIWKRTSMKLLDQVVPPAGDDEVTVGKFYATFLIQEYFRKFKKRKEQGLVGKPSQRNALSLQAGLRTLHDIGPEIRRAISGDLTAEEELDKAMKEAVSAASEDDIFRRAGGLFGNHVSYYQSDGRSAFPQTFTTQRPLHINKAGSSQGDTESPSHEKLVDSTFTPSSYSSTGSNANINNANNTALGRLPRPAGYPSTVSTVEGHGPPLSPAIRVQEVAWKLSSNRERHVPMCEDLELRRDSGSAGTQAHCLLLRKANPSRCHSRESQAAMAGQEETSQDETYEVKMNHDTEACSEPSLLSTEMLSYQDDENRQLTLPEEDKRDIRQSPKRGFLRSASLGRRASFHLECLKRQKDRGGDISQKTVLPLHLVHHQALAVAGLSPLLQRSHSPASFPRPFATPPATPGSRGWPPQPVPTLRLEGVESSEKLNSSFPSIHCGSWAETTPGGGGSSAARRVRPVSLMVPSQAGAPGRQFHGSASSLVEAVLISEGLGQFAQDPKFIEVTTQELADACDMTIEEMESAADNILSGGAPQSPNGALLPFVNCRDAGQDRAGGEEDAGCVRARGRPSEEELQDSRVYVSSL

[18] = Terminal half-life in iv dosed rat; type: ADME, organism-based; conditions: in vivo, read-out: beta t1/2 (converted)
Cavia porcellus [19] = assay: Effect on fingolimod-induced shortening of AERP in guinea pig model assessed as prolongation of shortened AERP at 3 mg/kg, iv measured at 20 to 30 mins; type: functional, organism-based; conditions: time 20-30 min
[20] = Toxicity in rat assessed as NOAEL administered as repeated dose for 6 days; conditions: in vivo, time 6 day
[21] = Cmax in rat administered as repeated dose for 6 days; type: ADME; set-up: time 6 day; conditions: in vivo
[22] = Toxicity in langendorff-perfused guinea pig heart assessed as effect on left ventricular action potential duration at 10 uM; type: tissue-based, Cavia porcellus
[23] = Brain to plasma ratio in iv dosed rat measured after 30 mins; type: ADME, organism-based; conditions: read-out: BPR
[24] = Intrinsic clearance in human liver microsomes; type: ADME, Microsome; conditions: read-out: CLH
[25] = Intrinsic clearance in rat liver microsomes; type: ADME, Microsome; conditions: read-out: CLH
[26] = molecular target: Kir3.1/Kir3.2 (Homo sapiens) (UniProt P48549+P48051); assay: Inhibition of recombinant human GIRK1/2 channel; type: protein-complex assay

Which IC50 (Kir3.1/Kir3.4) does the source give for O=c1cc(CO)n(-c2c(Cl)cccc2Cl)c2c(Cl)cnc(OCC(O)CO)c12 (centres undefined) here?
The IC50 was 80 nM.

What about the Ratio (MDCK) of the same molecule?
The Ratio was 12.1.

What about the Papp A→B [1] of the same molecule?
Its Papp A→B is 7 ×10⁻⁶ cm/s.

What about the solubility [2] of the same molecule?
The solubility was 700 µM (≈ 312 µg/mL).

Which IC50 (Kir3.1/Kir3.4) does the source give for Cc1cc(=O)c2c(F)cncc2n1-c1c(Cl)cc(OCC(O)CO)cc1Cl (centres undefined) here?
Its IC50 is 11 nM.

What about the Ratio (MDCK) of the same molecule?
The Ratio was 0.9.

And the Papp A→B [1]?
The Papp A→B was 31 ×10⁻⁶ cm/s.

What about the Kp [3] of the same molecule?
The Kp was 1.

And the solubility [2]?
Its solubility is 660 µM (≈ 273 µg/mL).

For Cc1cc(=O)c2c(OCCOCCOCCOCCO)ncc(Cl)c2n1-c1c(Cl)cccc1Cl, which Ratio (MDCK) is on record?
The Ratio was 5.7.

What about the Papp A→B [1] of the same molecule?
The Papp A→B was 23 ×10⁻⁶ cm/s.

And the solubility [2]?
The solubility was 600 µM (≈ 319 µg/mL).

Which results are given for COc1cc(Cl)c(-n2c(C)cc(=O)c3c(F)cncc32)c(Cl)c1?
IC50 (Kir3.1/Kir3.4): 2 nM; Ratio (MDCK): 1.1; Papp A→B [1]: 39.1 ×10⁻⁶ cm/s; solubility [2]: 46 µM (≈ 16.2 µg/mL)

For Cc1cc(=O)c2c(F)cncc2n1-c1c(Cl)cc(C#CCN2CCOCC2)cc1Cl, which IC50 (Kir3.1/Kir3.4) is on record?
The IC50 was 220 nM.

What about the Ratio (MDCK) of the same molecule?
Its Ratio is 1.1.

And the Papp A→B [1]?
Its Papp A→B is 20.4 ×10⁻⁶ cm/s.

And the solubility [2]?
Its solubility is 240 µM (≈ 107 µg/mL).

Which results are given for Cc1cc(=O)c2c(OCC(O)COCC(O)CO)ncc(Cl)c2n1-c1c(Cl)cccc1Cl (centres undefined)?
Ratio (MDCK): 15; Papp A→B [1]: 7.5 ×10⁻⁶ cm/s; solubility [2]: 720 µM (≈ 363 µg/mL)

Which IC50 [4] does the source give for O=c1cc(CO)n(-c2c(Cl)cccc2Cl)c2c(Cl)cnc(OC[C@H](O)CO)c12 here?
The IC50 was > 50000 nM.

And the EC90 (Cavia porcellus [5])?
Its EC90 is 1200 nM.

What about the Activity [6] of the same molecule?
Its Activity is “Non-Toxic”.

And the Activity [7]?
Its Activity is “Non-Toxic”.

What about the IC50 (Kir3.1/Kir3.2) of the same molecule?
Its IC50 is 100 nM.

And the solubility thermodynamic [8]?
Its solubility thermodynamic is 1000 µM (≈ 446 µg/mL).

What about the Activity [9] of the same molecule?
Its Activity is “Non-Toxic”.

What about the NOAEL [10] of the same molecule?
The NOAEL was 75 mg/kg.

And the clearance [11]?
The clearance was 35 mL/min/kg.

What about the IC50 (Kir3.1/Kir3.4) of the same molecule?
Its IC50 is 100 nM.

And the Activity [12]?
Its Activity is “Non-Toxic”.

What about the Activity (Cavia porcellus [13]) of the same molecule?
Its Activity is “Active”.

And the IC50 [14]?
Its IC50 is > 50000 nM.

What about the Cmax [15] of the same molecule?
The Cmax was 193 µM.

What about the Ratio (MDCK) of the same molecule?
Its Ratio is 13.5.

And the IC50 [16]?
Its IC50 is > 50000 nM.

What about the Papp A→B [1] of the same molecule?
Its Papp A→B is 8.7 ×10⁻⁶ cm/s.

What about the IC50 [17] of the same molecule?
The IC50 was > 50000 nM.

What about the half-life [18] of the same molecule?
Its half-life is 1.3 h.

And the Activity (Cavia porcellus [19])?
Its Activity is “Active”.

And the NOAEL at 144 h [20]?
The NOAEL at 144 h was 75 mg/kg.

And the Cmax [21]?
Its Cmax is 193 µM.

What about the Activity [22] of the same molecule?
The Activity was “Non-Toxic”.

What about the Kp at 0.5 h [23] of the same molecule?
The Kp at 0.5 h was 0.02.

Which IC50 (Kir3.1/Kir3.4) does the source give for COc1ncc(C)c2c1c(=O)cc(CO)n2-c1c(Cl)cccc1Cl here?
The IC50 was 290 nM.

What about the Papp A→B [1] of the same molecule?
Its Papp A→B is 8.5 ×10⁻⁶ cm/s.

And the solubility [2]?
Its solubility is 280 µM (≈ 102 µg/mL).

With CSc1c(C#N)c(=O)c2ccc(F)cc2n1-c1c(Cl)cccc1Cl as the molecule, how does the microsomal CLint [24] read?
Its microsomal CLint is 77 µL/min/mg.

And the IC50 [4]?
The IC50 was > 30000 nM.

And the microsomal CLint [25]?
The microsomal CLint was 236 µL/min/mg.

What about the IC50 (Kir3.1/Kir3.4) of the same molecule?
The IC50 was 50 nM.

What about the inhibition [26] of the same molecule?
The inhibition was “inactive”.

What about the IC50 [14] of the same molecule?
Its IC50 is > 50000 nM.

And the IC50 [16]?
The IC50 was 33000 nM.

What about the IC50 [17] of the same molecule?
Its IC50 is 24200 nM.

What about the solubility [2] of the same molecule?
Its solubility is 13 µM (≈ 4.93 µg/mL).
